A short description of assay [1]: In vitro selectivity index measured for IC50 to that of EC90 was determined in human hepatoblastoma cell line (2.2.15 cells). It counts as functional.
The test system of assay [2] is HepG2. Briefly: Effective concentration necessary to decrease extracellular Hepatitis B virus DNA levels by 90% in human hepatoblastoma cell line (2.2.15 cells) in vitro. It counts as functional.
Assay [3] deals with HepG2. In words: Effective concentration necessary to decrease extracellular Hepatitis B virus DNA levels by 50% in human hepatoblastoma cell line (2.2.15 cells) in vitro. It counts as functional, cell-based.
Assay [4] relates to HepG2. In words: Cytotoxicity towards human hepatoblastoma cell line (2.2.15 cells) measured by inhibition of neutral red dye uptake in vitro. Type of assay: functional, cell-based.
Assay [5] deals with HepG2. Briefly: Relative level of HBV viral DNA (Extracellular) following treatment of human hepatoblastoma cell line (2.2.15 cells) with the compound. It counts as functional.
The subject of assay [6] is HepG2. In words: Relative level of HBV viral mRNA (2.1 kb mRNA) following treatment of human hepatoblastoma cell line (2.2.15 cells) with the compound. Type of assay: functional.
The test system of assay [7] is HepG2. In words: Relative level of HBV viral antigen (HBcAg) following treatment of human hepatoblastoma cell line (2.2.15 cells) with the compound. It counts as functional.
Assay [8] relates to HepG2. In words: Relative level of HBV viral antigen (HBeAg) following treatment of human hepatoblastoma cell line (2.2.15 cells) with the compound. Type of assay: functional.
The test system of assay [9] is HepG2. In words: Relative level of HBV viral DNA (Intracellular) following treatment of human hepatoblastoma cell line (2.2.15 cells) with the compound. Type of assay: functional.
Assay [10] has as its system HepG2. In words: Relative level of HBV viral mRNA (3.6 kb mRNA) following treatment of human hepatoblastoma cell line (2.2.15 cells) with the compound. Type of assay: functional.
Assay [11] deals with HepG2. Briefly: Relative level of HBV viral antigen (HBsAg) following treatment of human hepatoblastoma cell line (2.2.15 cells) with the compound. It counts as functional.

Each structure is given as a SMILES string.

`Nc1ccn([C@@H]2CS[C@H](CO)O2)c(=O)n1` [LAMIVUDINE]: the Ratio in assay [1] came out at 11200. Further, the EC90 (as a rule, the concentration needed for an effect of 90%) with HepG2 [2] worked out at 0.16 µM. Further, the EC50 (usually the midpoint of the concentration-response curve) in the assay on HepG2 [3] turned out to be 0.038 µM. Further, in the assay on HepG2 [4], 1790 µM corresponded to half-maximal inhibition (IC50).
The matching figures for `Nc1nc(O)c2ncn(CCC(CO)CO)c2n1` [PENCICLOVIR]: 471, 0.92 µM, 0.19 µM and 433 µM.
As for `O=c1cc(-c2ccc(O)c(-c3c(O)cc4oc(-c5ccc(O)cc5)cc(=O)c4c3O)c2)oc2cc(O)cc(O)c12` [ROBUSTAFLAVONE], the Ratio in assay [1] was determined as 153. The molecule further returned an EC90 with HepG2 [2] of 2.2 µM. In addition, the Relative level was 1 in the assay on HepG2 [5]; 106 with HepG2 [6]; 138 in the assay on HepG2 [7]; 86 with HepG2 [8]; 5 in the assay with HepG2 [9]; 93 with HepG2 [10]. The same molecule yielded a Relative level in the assay with HepG2 [11] of 97. In addition, a half-maximal effect in the assay with HepG2 [3] (EC50) was put at 0.25 µM. Further, it took 337 µM to reach half-maximal inhibition in the assay on HepG2 [4] (IC50).
In the case of `Nc1ccn([C@H]2CC[C@@H](CO)O2)c(=O)n1` [ZALCITABINE], the Ratio in assay [1] turned out to be 30. The same molecule registered an EC90 in the assay on HepG2 [2] of 8.4 µM. Besides, the Relative level amounted to 1 in the assay with HepG2 [5]; 87 with HepG2 [6]; 91 in the assay with HepG2 [7]; 88 in the assay on HepG2 [8]; 6 in the assay with HepG2 [9]; 94 in the assay with HepG2 [10]. In the assay with HepG2 [11], the Relative level is recorded as 90. This molecule also displayed an EC50 with HepG2 [3] of 1.4 µM. The 50% inhibitory concentration (IC50) (usually the concentration that gives 50% inhibition) with HepG2 [4] stood at 252 µM.

The record behind these values is ChEMBL document CHEMBL1130525, “Robustaflavone, a naturally occurring biflavanoid, is a potent non-nucleoside inhibitor of hepatitis B virus replication in vitro” (Bioorg Med Chem Lett, 1997).
